In assay [1] the target is T1, truncated human 11β-HSD-1 enzyme (24-287AA) (Homo sapiens, UniProt P28845).
T1 construct: truncated human 11β-HSD-1 enzyme (24-287AA); made in house; host or cells: E. coli (lysate)
Description: Human 11β-HSD-1 enzymatic SPA assay. To be noted: human enzyme, SPA. It is filed as biochemical. The protocol:
(§1) The ability of test compounds to inhibit human 11β-HSD-1 enzymatic activity in vitro was evaluated in a Scintillation Proximity Assay (SPA). […] The reaction was stopped by adding a non-specific 11β-HSD inhibitor, 18β-glycyrrhetinic acid. The tritiated cortisol was captured by a mixture of an anti-cortisol monoclonal antibody and SPA beads coated with anti-mouse antibodies. The reaction plate was shaken at room temperature and the radioactivity bound to SPA beads was then measured on a β-scintillation counter. The 11β-HSD-1 assay was carried out in 96-well microtiter plates in a total volume of 220 μl. […] In order to drive the reaction in the forward direction, 1 mM G-6-P was also added. Solid compound was dissolved in DMSO to make a 10 mM stock followed by a subsequent 10-fold dilution with 3% DMSO in Tris/EDTA buffer (pH 7.4). 22 μl of titrated compounds was then added in triplicate to the substrate. Reactions were initiated by the addition of 10 μl of 0.1 mg/ml E. coli lysates overexpressing 11β-HSD-1 enzyme. After shaking and incubating plates for 30 minutes at room temperature, reactions were stopped by adding 10 μl of 1 mM glycyrrhetinic acid. The product, tritiated cortisol, was captured by adding 10 μl of 1 μM monoclonal anti-cortisol antibodies and 100 μl SPA beads coated with anti-mouse antibodies. After shaking for 30 minutes, plates were read on a liquid scintillation counter Topcount. Percent inhibition was calculated based on the background and the maximal signal. Wells that contained substrate without compound or enzyme were used as the background, while the wells that contained substrate and enzyme without any compound were considered as maximal signal. Percent of inhibition of each compound was calculated relative to the maximal signal and IC50 curves were generated. This assay was applied to 11β-HSD-2 as well, whereby tritiated cortisol and NAD^+ were used as substrate and cofactor, respectively.

Another assay deals with T2, human 11β-HSD-2 (Homo sapiens, UniProt P80365).
T2 sequence (P80365 1-405): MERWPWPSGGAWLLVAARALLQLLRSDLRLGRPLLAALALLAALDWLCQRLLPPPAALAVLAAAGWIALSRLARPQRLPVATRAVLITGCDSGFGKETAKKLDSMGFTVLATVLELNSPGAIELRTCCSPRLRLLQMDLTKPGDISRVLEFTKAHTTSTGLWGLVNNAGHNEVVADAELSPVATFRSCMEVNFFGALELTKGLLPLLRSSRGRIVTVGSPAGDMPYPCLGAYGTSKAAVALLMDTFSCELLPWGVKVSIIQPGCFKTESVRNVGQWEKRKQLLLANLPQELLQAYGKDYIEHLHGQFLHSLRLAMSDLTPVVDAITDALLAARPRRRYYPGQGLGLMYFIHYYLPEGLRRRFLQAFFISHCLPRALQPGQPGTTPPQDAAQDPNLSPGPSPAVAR
In words: Human 11β-HSD-2 enzymatic SPA assay. It is filed as biochemical. To be noted: human enzyme, SPA. The protocol: as §1

For the next assay, the target named is 11βHSD-1 (Homo sapiens, UniProt P28845). The note with it: cited from earlier work.
Setting [2] is: Table 3, Boyle et al., Expert Opin. Ther. Patents 19(6), 801-825 (2009), read-out: IC50.
The mark [3] stands for this setting: Table 1, Barf et al., Drugs of the Future 31(3), 231-243 (2006), read-out: IC50.
Where [4] appears, read: Table 4, Webster et al., Expert Opin. Ther. Patents 17(12), 1407-1422 (2007), read-out: Ki.
Where [5] appears, read: Table 5, Boyle, Current Opinion in Drug Discovery & Development 2008, 11(4), 495-511, read-out: IC50.

Read-outs that look alike come from different tables or passages of the source.

Chain of 11βHSD-1 (P28845 whole entry, species assumed): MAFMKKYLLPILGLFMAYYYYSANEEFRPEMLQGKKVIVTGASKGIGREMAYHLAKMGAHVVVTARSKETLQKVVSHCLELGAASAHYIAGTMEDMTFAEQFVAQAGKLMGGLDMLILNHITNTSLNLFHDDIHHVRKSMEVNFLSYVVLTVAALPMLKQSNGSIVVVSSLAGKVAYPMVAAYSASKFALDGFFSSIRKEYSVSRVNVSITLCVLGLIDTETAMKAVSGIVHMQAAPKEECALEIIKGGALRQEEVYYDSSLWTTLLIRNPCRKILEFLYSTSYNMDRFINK
T1 sequence (P28845 24-287): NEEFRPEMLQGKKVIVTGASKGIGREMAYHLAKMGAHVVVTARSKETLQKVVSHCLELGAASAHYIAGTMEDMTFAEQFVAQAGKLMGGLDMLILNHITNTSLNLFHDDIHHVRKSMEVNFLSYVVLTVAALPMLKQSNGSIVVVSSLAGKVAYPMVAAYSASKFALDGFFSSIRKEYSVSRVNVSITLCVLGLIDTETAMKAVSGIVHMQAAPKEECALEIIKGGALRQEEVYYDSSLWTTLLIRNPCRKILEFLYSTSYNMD

By IC50 is commonly meant the concentration that gives 50% inhibition. Regarding `CC(C)(C(=O)NC1C2CC3CC1CC(C(N)=O)(C3)C2)N1CCN(c2cnccn2)CC1` (stereo not drawn) [(E)-4-{[2-methyl-2-(4-pyrazin-2-ylpiperazin-1-yl)propanoyl]amino}adamantane-1-carboxamide], the IC50 in assay [1] is 35 nM; against human 11β-HSD-2, more than 30000 nM.

Regarding `O=C(O)C12CC3CC(C1)C(NC(=O)C1(c4ccc(Cl)cc4)CCC1)C(C3)C2` (stereo not drawn) [(E)-4-{[1-(4-chloro-phenyl)-cyclobutanecarbonyl]-amino}-adamantane-1-carboxylic acid], the values for the IC50 (in assay [1]; at human 11β-HSD-2) were 43 nM and more than 10000 nM, respectively.

On to `NC(=O)[C@]12C[C@@H]3C[C@H](C1)[C@@H](NC(=O)C1(c4ccc(Cl)cc4)CC1)[C@@H](C3)C2` [(E)-4-({[1-(4-chlorophenyl)cyclopropyl]carbonyl}amino)adamantane-1-carboxamide], for which the IC50 in assay [1] is 33 nM; against human 11β-HSD-2, more than 30000 nM.

With `CC(C)(Oc1ccc(Cl)cc1)C(=O)N[C@@H]1[C@@H]2C[C@@H]3C[C@H]1C[C@@](CS(N)(=O)=O)(C3)C2` [N-{(E)-5-[(aminosulfonyl)methyl]-2-adamantyl}-2-(4-chlorophenoxy)-2-methyl propanamide], the IC50 in assay [1] came out at 96 nM.

In the case of `CC(C(=O)N[C@@H]1[C@@H]2C[C@@H]3C[C@H]1C[C@@](O)(C3)C2)N1C[C@@H](C)O[C@@H](C)C1` (stereo partly drawn) [2-[(cis)-2,6-dimethylmorpholin-4-yl]-N-[(E)-5-hydroxy-2-adamantyl]propanamide], the IC50 was 110 nM in assay [1] and more than 10000 nM against human 11β-HSD-2.

For `CC1(C)C(=O)N(C2C3CC4CC2CC(C(N)=O)(C4)C3)CC1COc1ccc(C(F)(F)F)cn1` (stereo not drawn) [(E)-4-[3,3-dimethyl-2-oxo-4-({[5-(trifluoromethyl)pyridin-2-yl]oxy}methyl)pyrrolidin-1-yl]adamantane-1-carboxamide], the half-maximal inhibitory concentration (IC50) is 39 nM in assay [1] and 1360 nM against human 11β-HSD-2.

On human 11β-HSD-2, `CC(C)(C(=O)N[C@@H]1[C@@H]2C[C@@H]3C[C@H]1C[C@@](C(N)=O)(C3)C2)c1ccc(-c2cccnc2)cc1` [(E)-4-{[2-methyl-2-(4-pyridin-3-ylphenyl)propanoyl]amino}adamantane-1-carboxamide] came in with an IC50 of 44000 nM.

For `CC1(C(=O)N[C@@H]2[C@@H]3C[C@@H]4C[C@H]2C[C@@](C(N)=O)(C4)C3)CCN(Cc2cccc(Cl)c2)C1=O` (stereo partly drawn) [(E)-4-(aminocarbonyl)-2-adamantyl]-1-(3-chlorobenzyl)-3-methyl-2-oxopyrrolidine-3-carboxamide], it took 10000 nM to reach half-maximal inhibition against human 11β-HSD-2 (IC50).

For the compound `C[C@@H](c1ccc2ccccc2c1)N1CCN(Cc2ccccc2)C1=O` [Example 575], at 11βHSD-1 (setting [2]), the IC50 was 2.9 nM.

Take `O=C(Cc1ccc(Cl)cc1)c1ccc(Br)cc1` [Example 520]: at 11βHSD-1 (setting [3]), the IC50 was 77 nM.

Turning to `CC1(C)C(=O)N(C2C3CC4CC2CC(C(N)=O)(C4)C3)CC1COc1ccc(-n2ccnc2)cc1` (stereo not drawn) [(E)-4-(4-{[4-(1H-imidazol-1-yl)phenoxy]methyl}-3,3-dimethyl-2-oxopyrrolidin-1-yl)adamantane-1-carboxamide], the IC50 in assay [1] came to 76 nM.

For `COc1cc(-c2nnc(C34CC5CC(CC(C5)C3)C4)n2C)cc(OC)c1OC` [Example 507], the IC50 at 11βHSD-1 (setting [3]) is less than 10 nM.

For the compound `Cc1ccc(C(=O)N(C2CC2)[C@H]2CC[C@H](CCO)CC2)c(F)c1` [Example 594], the IC50 on 11βHSD-1 (setting [2]) was 2 nM.

In general, Ki refers to the equilibrium dissociation constant of an inhibitor or competing ligand from its target. In the case of `CC(O)c1cccc(NS(=O)(=O)c2ccc(-c3ccc(C#N)cc3)cc2)n1` (stereo not drawn) [Example 673], the Ki at 11βHSD-1 (setting [4]) is 1.8 nM.

For `O=C(O)C12CC3CC(C1)C(NC(=O)C1(c4ccccc4)CC1)C(C3)C2` (stereo not drawn) [(E)-4-[(1-phenyl-cyclopropanecarbonyl)-amino]-adamantane-1-carboxylic acid], the midpoint of inhibition in assay [1], the IC50, lay at 102 nM.

With `CC(CC(F)(F)F)c1nnc(C23CCC(c4nnc(-c5ccccc5C(F)(F)F)n4C)(CC2)CC3)o1` (stereo not drawn) [Example 531], the IC50 at 11βHSD-1 (setting [2]) was 9 to 100 nM.

With `O=C1CC(c2ccccc2)Oc2ccccc21` (stereo not drawn) [Example 497], on 11βHSD-1 (setting [3]), the IC50 is 18000 nM.

With `O=C(NC1C2CC3CC(C2)CC1C3)[C@H]1CCCN1S(=O)(=O)c1ccc(Cl)cc1` (stereo partly drawn) [Example 548], the IC50 on 11βHSD-1 (setting [2]) was less than 0.03 nM.

In the case of `Cc1c(Cl)cccc1S(=O)(=O)Nc1ccc2c(c1)nc(C)n2C` [Example 505], at 11βHSD-1 (Table 1, @ 10 μM), the “% @ 10 μM” value is 110% @ 10.

For `O=C(c1cnn(C2CCNCC2)c1C1CC1)N1CC[C@@H](c2ccccc2C(F)(F)F)C1` [Example 578], the concentration for half-maximal inhibition (IC50) at 11βHSD-1 (setting [2]) was less than 30 nM.

Consider `CC1(C2CC2)Cc2nnc(-c3ccccc3Cl)n2CCS1` (stereo not drawn) [Example 534], for which the “% @ 39 nM” value on 11βHSD-1 (Table 3, @ 39 nM) is recorded as 71.8% @ 39.

`COc1cc(C(=O)N2CCC(n3c(=O)[nH]c4ccccc43)CC2)ccc1C` [Example 698]: the IC50 at 11βHSD-1 (setting [5]) was 110 nM.

For `CC(C)(C)OC(=O)Nc1ccc(OC(C)(C)C(=O)N[C@@H]2[C@@H]3C[C@@H]4C[C@H]2C[C@@](C(N)=O)(C4)C3)cc1` [tert-butyl 4-(2-{[(E)-5-(aminocarbonyl)-2-adamantyl]amino}-1,1-dimethyl-2-oxoethoxy)phenylcarbamate], at human 11β-HSD-2, the IC50 was found to be 37000 nM.

On human 11β-HSD-2, `CC1CN(c2ccccn2)CCN1C(C)(C)C(=O)NC1C2CC3CC1CC(C(=O)O)(C3)C2` [(E)-4-({2-methyl-2-[(2S)-2-methyl-4-pyridin-2-ylpiperazin-1-yl]propanoyl}amino) adamantane-1-carboxylic acid] displayed an IC50 of more than 30000 nM.

Take `COc1ccc(S(=O)(=O)NCC(=O)c2ccc(C(C)(C)C)cc2)cc1` [Example 713]: the IC50 on 11βHSD-1 (setting [5]) is 82 nM.

As to `C[C@](O)(c1ccc(C(=O)N(C2CCC(c3cccnc3)CC2)C2CC2)cc1)C(F)(F)F` (stereo partly drawn) [Example 714], the IC50 on 11βHSD-1 was 1.4 nM.

As to `O=S(=O)(Cc1ccc(C(F)(F)F)cc1)N1CCN(c2ncccc2C(F)(F)F)CC1` [Example 707], on 11βHSD-1 (setting [5]), the IC50 was 430 nM.

Consider `Cc1cc(Cl)ccc1OCCCC(=O)N(C)C1C2CC3CC(C2)C(CO)C1C3` (stereo not drawn) [Example 555], for which, on 11βHSD-1 (setting [2]), the IC50 was 1 nM.

For the compound `Cc1cc(N)nc(NS(=O)(=O)c2sc(-c3ccc(C#N)cc3)nc2C)c1` [Example 672], the Ki on 11βHSD-1 (setting [4]) is 2.8 nM.

As for `N#Cc1ccc(C2CCN(S(=O)(=O)Nc3cccc(N)n3)CC2)cc1` [Example 671], the Ki at 11βHSD-1 (read-out: Ki) was less than 1 nM.

Compound `C[S+]([O-])[C@]12C[C@@H]3C[C@H](C1)[C@@H](NC(=O)C(C)(C)Oc1ccc(F)cc1Cl)[C@@H](C3)C2` (stereo partly drawn) [2-(2-chloro-4-fluorophenoxy)-2-methyl-N-[(E)-5-(methylsulfinyl)-2-adamantyl]propanamide] had an IC50 in assay [1] of 28 nM.

In the case of `CC1(C)NC2(CCN(C(=O)NC3C4CC5CC(C4)CC3C5)CC2)c2c(Cl)cccc21` (stereo not drawn) [Example 560], at 11βHSD-1 (setting [2]), the IC50 was less than 50 nM.

In the case of `Cc1cc(C)nc(NS(=O)(=O)N2CCN(c3ccc(C#N)cn3)CC2)c1` [Example 674], the Ki at 11βHSD-1 is 0.66 nM.

As to `O=C(c1ccc(-c2ccccc2[N+](=O)[O-])o1)N1CC[C@@H]2CCCC[C@@H]2C1` [Example 514], the IC50 at 11βHSD-1 (setting [3]) was 7.7 nM.

Regarding `CN1C(=O)N(C2C3CC4CC(C3)CC2C4)C[C@@H]1C(C)(C)C` (stereo partly drawn) [Example 558], the IC50 on 11βHSD-1 (setting [2]) was less than 50 nM.

With `CC1(C)CC2CC(C)(CN2C(=O)c2cc(Cl)c(N)c(Cl)c2)C1` (stereo not drawn) [Example 693], on 11βHSD-1 (setting [5]), the IC50 is 4 nM.

With `Cc1c(S(=O)(=O)Nc2nc(C34CC5CC(CC(C5)C3)C4)cs2)sc2ccc(Cl)cc12` [Example 681], at 11βHSD-1 (Table 4, Webster et al., Expert Opin. Ther. Patents 17(12), 1407-1422 (2007), read-out: IC50), the IC50 was 18 nM.

Consider `CC(=O)N1CCC2(CC(C3(c4ccc(Cl)cc4)CC3)=NO2)C1` (stereo not drawn) [Example 579], for which the IC50 on 11βHSD-1 (setting [2]) was less than 5000 nM.

With `CC(C)[C@@H]1CC[C@@H](C)C[C@@H]1O` [Example 524], the IC50 on 11βHSD-1 (read-out: IC50) is 35000 nM.

As for `Cc1c(Cl)cccc1S(=O)(=O)N1CCC[C@H](C(=O)NC2CCCCC2)C1` [Example 600], the IC50 on 11βHSD-1 (read-out: IC50) is 3 nM.

The record behind these values is patent US8871208B2, “11-β-hydroxysteroid dehydrogenase type 1 (11β-HSD1) inhibitors and uses thereof” (AbbVie Inc., priority 2009, dated 2014).
